Assay results reported in patent US20130315843A1, “COMPOSITION FOR REDUCTION OF TRPA1 AND TRPV1 SENSATIONS” (priority 2012, published 2013).
Where a name gives a salt, the structure may show the parent alone. Read-outs that look alike come from different tables or passages of the source.

What was measured:
human TRPA1 [1] = molecular target: T1, human TRPA1 (Homo sapiens, UniProt O75762); experiment: FLIPR Ca2+ assay, reduction of L-Menthol activation of TRPA1
Description: In order to determine whether TRPA1 is activated, the intracellular calcium ion (Ca^2+) level from transfected cells with the TRPA1 receptor gene was measured. HEK-2 cells stably transfected with human TRPA1 were grown in 15 ml growth medium [high glucose DMEM (Dulbecco's Modification of Eagle's Medium) supplemented with 10% FBS (fetal bovine serum), 100 μg/ml Penicillin/streptomycin, 100 μg/ml G418] in a 75 Cm^2 flask for 3 days at 37° C. in a mammalian cell culture incubator set at 5% CO2. Cells were detached with addition of 10 ml of PBS (phosphate buffered saline) by hand shaking gently and transferred to a 50 ml tube and centrifuged at 850 rpm for 3 minutes to remove PBS. After centrifugation, a pellet of cells was formed in the bottom of the tube separating them from the supernatant solution. […] Fluo-4 is a fluorescent dye used for quantifying cellular Ca^2+ concentrations in the 100 nM to 1 μM range.
The pelleted cells were re-suspended in 10 ml assay buffer and 90 μl aliquots (˜50,000 cells) per well delivered to a 96-well assay plate containing 10 μl of test compounds (1 mM in assay buffer, final concentration 100 μM) or buffer control and incubated at room temperature for 30 minutes. After 30 minutes, the plate was placed into a fluorometric imaging plate reader (FLIPR384 from Molecular Devices) and basal fluorescence recorded (excitation wave length 488 nm and emission wave length 510 nm). Then 20 μl of the molecule being tested as a TRPA1 antagonist was added and fluorescence recorded. For determining the direct effect of test compounds on TRPA1, fluorescence was measured immediately after addition of each compound.
To determine if a compound was an antagonist or a desensitizer the direct effect of a test compound was determined. For determining the direct effect of test compounds on TRPA1 receptor activation, 100 μl aliquots (˜50,000 cells) of cells prepared as described above were delivered to a 96-well assay plate and basal fluorescence recorded as noted above. Then 20 μl of the compound being tested as a TRPA1 activator was added and fluorescence recorded. If any increase in fluorescence over background was noted, then the compound was considered an agonist.

human TRPV1 = human TRPV1 (Homo sapiens, UniProt Q8NER1); experiment: FLIPR Ca2+ assay, reduction of L-Menthol activation of TRPV1; conditions: for inhibition at 100 µM: read-out: % Reduction of L-Menthol TRPV1 Activation
Chain of human TRPV1 (Q8NER1 whole entry): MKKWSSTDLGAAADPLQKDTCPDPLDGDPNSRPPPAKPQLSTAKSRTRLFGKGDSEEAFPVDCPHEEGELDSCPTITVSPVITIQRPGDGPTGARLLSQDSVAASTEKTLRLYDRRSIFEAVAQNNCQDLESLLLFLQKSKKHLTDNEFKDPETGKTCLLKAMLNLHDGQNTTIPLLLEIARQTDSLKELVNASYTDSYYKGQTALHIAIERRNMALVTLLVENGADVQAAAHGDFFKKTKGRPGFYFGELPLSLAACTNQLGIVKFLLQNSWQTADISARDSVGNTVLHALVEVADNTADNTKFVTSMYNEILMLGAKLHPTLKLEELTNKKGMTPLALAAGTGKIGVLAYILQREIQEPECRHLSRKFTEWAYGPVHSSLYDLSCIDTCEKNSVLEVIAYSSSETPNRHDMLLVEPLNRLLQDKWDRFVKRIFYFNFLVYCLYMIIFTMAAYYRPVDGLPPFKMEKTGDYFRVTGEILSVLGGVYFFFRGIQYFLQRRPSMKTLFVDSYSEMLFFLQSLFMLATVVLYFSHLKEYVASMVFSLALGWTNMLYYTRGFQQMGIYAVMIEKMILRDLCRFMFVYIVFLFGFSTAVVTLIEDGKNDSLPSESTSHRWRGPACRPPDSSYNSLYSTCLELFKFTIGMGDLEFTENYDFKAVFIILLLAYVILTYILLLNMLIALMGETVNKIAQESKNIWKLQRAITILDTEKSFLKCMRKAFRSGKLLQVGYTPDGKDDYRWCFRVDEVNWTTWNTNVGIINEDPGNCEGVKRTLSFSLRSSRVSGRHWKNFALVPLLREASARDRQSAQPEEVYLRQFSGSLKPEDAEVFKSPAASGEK

human TRPA1 [2] = molecular target: T1, human TRPA1; experiment: FLIPR Ca2+ assay, reduction of hydrogen peroxide activation of TRPA1; type: cell-based; parameters: expressed in transfected cells; conditions: for inhibition at 100 µM: read-out: % Reduction of Hydrogen Peroxide TRPA1 Activation
Description: After centrifugation, a pellet of cells was formed in the bottom of the tube separating them from the supernatant solution.
The pelleted cells were re-suspended in 10 ml assay buffer and 90 μl aliquots (˜50,000 cells) per well delivered to a 96-well assay plate containing 10 μl of test compounds ([…]) or buffer control and incubated at room temperature for 30 minutes.

[3] = 100 μM antagonist vs 1 mM L-Menthol
[4] = antagonist 100 μM against 1 mM L-Menthol
[5] = compound 100 μM against 200 μM hydrogen peroxide, Sets 1-4

T1 sequence (O75762 whole entry): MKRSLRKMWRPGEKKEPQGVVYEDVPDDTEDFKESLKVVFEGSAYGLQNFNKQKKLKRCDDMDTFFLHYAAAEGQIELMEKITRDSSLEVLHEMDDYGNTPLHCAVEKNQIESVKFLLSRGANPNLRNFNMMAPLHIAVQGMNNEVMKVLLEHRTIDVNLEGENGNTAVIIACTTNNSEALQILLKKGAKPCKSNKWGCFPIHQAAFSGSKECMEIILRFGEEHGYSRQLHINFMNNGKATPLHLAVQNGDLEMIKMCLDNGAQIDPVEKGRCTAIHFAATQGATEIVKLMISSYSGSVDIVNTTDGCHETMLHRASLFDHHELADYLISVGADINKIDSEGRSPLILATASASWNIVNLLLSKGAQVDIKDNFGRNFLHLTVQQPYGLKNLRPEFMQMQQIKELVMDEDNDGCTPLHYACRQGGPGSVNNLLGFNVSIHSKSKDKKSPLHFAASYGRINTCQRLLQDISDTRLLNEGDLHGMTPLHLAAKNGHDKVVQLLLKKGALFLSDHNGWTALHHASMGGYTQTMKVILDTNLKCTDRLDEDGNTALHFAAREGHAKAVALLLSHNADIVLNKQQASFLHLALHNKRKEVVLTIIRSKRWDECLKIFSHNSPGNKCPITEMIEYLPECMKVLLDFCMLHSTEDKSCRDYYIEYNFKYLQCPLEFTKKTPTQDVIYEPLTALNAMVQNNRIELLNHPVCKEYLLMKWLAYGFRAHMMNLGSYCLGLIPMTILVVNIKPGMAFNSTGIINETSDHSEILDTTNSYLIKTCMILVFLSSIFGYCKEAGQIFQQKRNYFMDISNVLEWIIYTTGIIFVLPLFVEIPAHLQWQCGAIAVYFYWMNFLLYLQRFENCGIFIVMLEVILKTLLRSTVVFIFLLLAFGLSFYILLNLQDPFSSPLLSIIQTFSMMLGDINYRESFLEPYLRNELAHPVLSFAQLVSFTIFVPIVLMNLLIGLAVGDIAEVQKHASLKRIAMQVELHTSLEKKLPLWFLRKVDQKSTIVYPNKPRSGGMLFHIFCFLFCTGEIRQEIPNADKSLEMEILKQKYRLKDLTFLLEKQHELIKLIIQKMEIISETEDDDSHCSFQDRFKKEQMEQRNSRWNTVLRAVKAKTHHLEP

| Compound | Block of L-Menthol activation of TRPA1 (human TRPA1 [1]; [3]) | Average Ca2+ Counts (human TRPV1; [4]) [Counts] | inhibition at 100 µM (human TRPV1) [%] | other results |
| --- | --- | --- | --- | --- |
| COc1cc(/C=C/C(=O)O)ccc1O [ferulic acid] | BLOCK ONLY MENTHOL/TRPA1 | 1242.0 | 34.5 | – |
| CC(C)CCOC=O [isopentyl formate] | BLOCK ONLY MENTHOL/TRPA1 | 1451.7 | 24.8 | – |
| COC(C=C(C)CCC=C(C)C)OC (mixture of isomers) | BLOCK ONLY MENTHOL/TRPA1 | – | – | – |
| O=C(O)c1ccc(O)cc1O [beta-resorcylic acid] | BLOCK ONLY MENTHOL/TRPA1 | 1317.3 | 31 | – |
| CC(=O)OCC1=CCC2C[C@@H]1C2(C)C | BLOCK ONLY MENTHOL/TRPA1 | – | – | – |
| O=C(O)CN(CCN(CC(=O)O)CC(=O)O)CC(=O)O [edta] | – | – | – | Block of L-Menthol activation of TRPA1 (human TRPA1 [1]): BLOCK ONLY MENTHOL/TRPA1; % Reduction of L-Menthol TRPV1 Activation (human TRPV1): 34.8%; Average Ca2+ Counts (human TRPV1): 1236.0 Counts |
| COc1ccccc1C(=O)O [2-methoxybenzoic acid] | BLOCK ONLY MENTHOL/TRPA1 | 1441.7 | 25.2 | – |
| CC/C=C\CCOC(=O)CCC [cis-3-hexenyl butyrate] | BLOCK ONLY MENTHOL/TRPA1 | 2987.5 | 26 | – |
| CC(=O)OCC1CCCO1 (centres unmarked) [tetrahydrofurfuryl acetate] | BLOCK ONLY MENTHOL/TRPA1 | 1269.3 | 33.2 | – |
| COc1ccc(OC)cc1 [1,4-dimethoxybenzene] | BLOCK ONLY MENTHOL/TRPA1 | 3633.0 | 43.2 | – |
| C=C1CC/C=C(\C)CC[C@@H]2[C@@H]1CC2(C)C [beta-caryophyllene] | BLOCK ONLY MENTHOL/TRPA1 | 2744.5 | – | % Reduction of L-Menthol TRPV1 Activation (human TRPV1; [4]): 32.0% |
| C/C=C(/C)C(=O)OCC(C)C [Angelic Acid Isobutyl Ester] | BLOCK ONLY MENTHOL/TRPA1 | – | – | – |
| CSC(C)C(C)=O (centres unmarked) [3-methylthio-2-butanone] | BLOCK ONLY MENTHOL/TRPA1 | 1554.0 | 20 | – |
| COC(=O)c1ccccc1NC(C)=O [methyl 2-(acetylamino)benzoate] | BLOCK ONLY MENTHOL/TRPA1 | 1178.3 | 37.4 | – |
| C=CCCCC(=O)OCC [ethyl 5-hexenoate] | BLOCK ONLY MENTHOL/TRPA1 | 1084.0 | 41.8 | – |
| CC1OCCC1=O (centres unmarked) [2-methyltetrahydro-3-furanone] | BLOCK ONLY MENTHOL/TRPA1 | 993.7 | 46 | – |
| CCC(C)SSC(C)CC (centres unmarked) [sec-butyl disulfide] | BLOCK ONLY MENTHOL/TRPA1 | 3652.0 | 21.3 | – |
| CCCC(C)C(=O)OC (centres unmarked) [methyl 2-methylpentanoate] | BLOCK ONLY MENTHOL/TRPA1 | 1529.3 | 21.2 | – |
| C/C=C(\C)C(=O)OC(C)C [isopropyl tiglate] | BLOCK ONLY MENTHOL/TRPA1 | 4497.5 | 29.7 | – |
| O=C1O[C@H]([C@@H](O)CO)C([O-])=C1O.[Na+] [(+)-Sodium L-ascorbate] | BLOCK ONLY MENTHOL/TRPA1 | – | – | – |
| O=C/C=C/c1ccccc1 [trans-Cinnamaldehyde] | BLOCK ONLY MENTHOL/TRPA1 | – | – | – |
| C=CC1(C)CCC(C(=C)C)O1 (centres unmarked) [2-Isopropenyl-5-Methyl-5-Vinyltetrahydrofuran] | BLOCK ONLY MENTHOL/TRPA1 | – | – | – |
| COc1cccc(OC)c1O [2,6-dimethoxyphenol] | – | 1365.0 | 28.8 | – |
| OCc1ccco1 [furfuryl alcohol] | BLOCK BOTH MENTHOL AND H2O2 ON TRPA1 | – | – | Average Ca++ Counts (human TRPA1 [2]): 5585.5 Counts; Block of hydrogen peroxide activation of TRPA1 (human TRPA1 [2]): BLOCK BOTH MENTHOL AND H2O2 ON TRPA1; inhibition at 100 µM (human TRPA1 [2]): 47.3% |
| CCCCCCCCCCO [1-decanol] | – | 1175.7 | 37.5 | – |

| Compound | Block of L-Menthol activation of TRPA1 (human TRPA1 [1]; [3]) | Average Ca2+ Counts (human TRPV1; [4]) [Counts] | inhibition at 100 µM (human TRPV1) [%] | other results |
| --- | --- | --- | --- | --- |
| CC(C)=CCCC(C)CCO (racemic) [(+−)-beta; -Citronellol] | BLOCK ONLY MENTHOL/TRPA1 | – | – | – |
| CCC(O)c1ccccc1 (centres unmarked) [1-phenyl 1-propanol] | BLOCK ONLY MENTHOL/TRPA1 | – | – | – |
| C/C=C(/C)C1CCC(C)(C)O1 (centres unmarked) [ocimene quintoxide] | – | 1236.3 | – | % Reduction of L-Menthol TRPV1 Activation (human TRPV1; [4]): 34.7% |
| COc1ccc(C(C)=O)cc1 [4′-methoxyacetophenone] | – | 1162.0 | 38.2 | – |
| CCC(C)C1CCCCC1=O (centres unmarked) [2-sec-butylcyclohexanone] | BLOCK ONLY MENTHOL/TRPA1 | – | – | – |
| CC(=O)c1cccn1C [2-acetyl-1-methylpyrrole] | – | 1254.0 | 33.9 | – |
| C[C@@H](CO)c1ccccc1 [(r)-(+)-2-phenyl-1-propanol] | – | 1414.0 | 26.5 | – |
| CC(=O)CCC=C(C)CCC=C(C)CCC=C(C)C [Farnesylacetone] | BLOCK ONLY MENTHOL/TRPA1 | – | – | – |
| CCOC(=O)C1OC1(C)c1ccccc1 (centres unmarked) [empg] | – | 1164.0 | – | % Reduction of L-Menthol TRPV1 Activation (human TRPV1; [4]): 38.1% |
| CCCCCCCCCCCC(=O)OC [methyl laurate] | – | 1199.7 | 36.4 | – |
| CCCCCCCCCCCCC(=O)O [Tridecanoic acid] | BLOCK ONLY MENTHOL/TRPA1 | – | – | – |
| Cc1ccc(C(C)C)c(O)c1 [thymol] | – | 1331.3 | 30.3 | – |
| CCC1CCC(=O)O1 (centres unmarked) [gamma-caprolactone] | – | 1084.3 | 41.8 | – |
| O=C1O[C@H]([C@@H](O)CO)C([O-])=C1O.[Na+] [(+)-sodium 1-ascorbate] | – | 2961.0 | – | % Reduction of L-Menthol TRPV1 Activation (human TRPV1; [4]): 26.6% |
| CCCCCCCC/C=C\CCCCCCCC(=O)O [Oleic acid] | BLOCK ONLY MENTHOL/TRPA1 | – | – | – |
| d-(−)-lactic acid | – | 1093.7 | – | % Reduction of L-Menthol TRPV1 Activation (human TRPV1; [4]): 41.3% |
| CCC(O)c1ccccc1 (centres unmarked) [phenylpropanol (1-phenyl 1-propanol), 1-phenyl 1-propanol] | – | 1218.3 | 35.6 | – |
| CCCCC/C=C/C=C/C=O [trans,trans-2,4-Decadienal] | BLOCK ONLY MENTHOL/TRPA1 | – | – | – |
| SCCc1cnccn1 [2-pyrazinylethanethiol] | – | 992.0 | 46 | Average Ca++ Counts (human TRPA1 [2]; [5]): 1987.5 Counts; inhibition at 100 µM (human TRPA1 [2]; [5]): 81.2% |
| CCC(C)C1CCCCC1=O (centres unmarked) [2-sec.-butylcyclohexanone] | – | 1352.3 | 29.4 | – |
| CCC/C=C/C(OCC)OCC [trans-2-hexen-1-al diethyl acetal] | – | 1169.0 | 37.9 | – |
| COc1ccc(C)cc1C [2,4-dimethylanisole] | – | 1255.3 | 33.9 | – |
| CC(O)C(C)S (centres unmarked) [3-mercapto-2-butanol] | – | 1008.3 | 45.3 | – |
| C/C=C/C(=O)OCC/C=C\CC [crotonic acid cis-3-hexen-1-yl ester] | – | 1150.0 | 38.7 | – |
| CCCCC/C=C/C(=O)OC [methyl trans-2-octenoate] | – | 1538.7 | 20.7 | – |
